# Measurements taken from US4585756A, “Bovine GRF” (The Salk Institute for Biological Studies, priority 1983, dated 1986).
# Test system: rat pituitary cells
# Experiment: in vitro release of growth hormone (ir GH by radioimmunoassay) from cultured rat pituitary cells, side-by-side with hGRF(1-44)-NH2
# Type: cell-based
# Method: To determine the effectiveness of the peptide to promote the release of growth hormone, in vitro assays are carried out using synthetic hGRF(1-44)-NH2 in side-by-side comparison with equimolar concentrations of the extracted and purified bGRF(1-44) of Example II. hGRF thus serves as a GRF Reference Standard having a known effectiveness to promote the release of growth hormone from rat pituitary cells. Cultures are used which include cells of rat pituitary glands removed some four to five days previously. Both cultures of a defined standard medium and cultures which are considered optimal for the secretion of growth hormone are used for the comparative testing, in the general manner described in Brazeau, et al. Regulatory Peptides, 1, 255, 1981. Incubation with the substance to be tested is carried out for 3 to 4 hours, and aliquots of the culture medium are removed and processed to measure their contents in immunoreactive GH(ir GH) by a well-characterized radioimmunoassay.
# [1] = equimolar ratios, rat pituitary cell cultures, incubation 3 to 4 hours
compound,measurement,setting,value
CC[C@H](C)[C@H](NC(=O)[C@H](C)NC(=O)[C@H](CC(=O)O)NC(=O)[C@H](C)NC(=O)[C@@H](N)Cc1ccc(O)cc1)C(=O)N[C@@H](Cc1ccccc1)C(=O)N[C@H](C(=O)N[C@@H](CC(N)=O)C(=O)N[C@@H](CO)C(=O)N[C@@H](Cc1ccc(O)cc1)C(=O)N[C@@H](CCCNC(=N)N)C(=O)N[C@@H](CCCCN)C(=O)N[C@H](C(=O)N[C@@H](CC(C)C)C(=O)NCC(=O)N[C@@H](CCC(N)=O)C(=O)N[C@@H](CC(C)C)C(=O)N[C@@H](CO)C(=O)N[C@@H](C)C(=O)N[C@@H](CCCNC(=N)N)C(=O)N[C@@H](CCCCN)C(=O)N[C@@H](CC(C)C)C(=O)N[C@@H](CC(C)C)C(=O)N[C@@H](CCC(N)=O)C(=O)N[C@@H](CC(=O)O)C(=O)N[C@H](C(=O)N[C@@H](CCSC)C(=O)N[C@@H](CC(N)=O)C(=O)N[C@@H](CCCNC(=N)N)C(=O)N[C@@H](CCC(N)=O)C(=O)N[C@@H](CCC(N)=O)C(=O)NCC(=O)N[C@@H](CCC(=O)O)C(=O)N[C@@H](CCCNC(=N)N)C(=O)N[C@@H](CC(N)=O)C(=O)N[C@@H](CCC(N)=O)C(=O)N[C@@H](CCC(=O)O)C(=O)N[C@@H](CCC(N)=O)C(=O)NCC(=O)N[C@@H](C)C(=O)N[C@@H](CCCCN)C(=O)N[C@H](C(=O)N[C@@H](CCCNC(=N)N)C(=O)N[C@@H](CC(C)C)C(N)=O)C(C)C)[C@@H](C)CC)C(C)C)[C@@H](C)O [bGRF(1-44)],intrinsic biological activity (GH release) compared with synthetic hGRF(1-44)-NH2,[1],full intrinsic biological activity
same,potency (GH release) compared with synthetic hGRF(1-44)-NH2,[1],close to the same potency
same,intrinsic activity relative to hGRF(1-44)-NH2,multiple doses factorial design experiments,same intrinsic activity
same,specific activity relative to hGRF(1-44)-NH2,"multiple doses factorial design experiments, % of hGRF(1-44)-NH2, confidence limits of 54-93%",about 70%
